Measurements published in patent US5356926A, “3-alkyloxy-, aryloxy-, or arylalkyloxy-benzo [β]thiophene-2-carboxamides as inhibitors of cell adhesion” (Warner-Lambert Company, priority 1993, dated 1994).

Tests used:
5-Lipoxygenase [1] = molecular target: T1, 5-Lipoxygenase (Rattus norvegicus, UniProt P12527); experiment: 5-lipoxygenase inhibition assay (20,000 xg supernatant of RBL cells); assay type: biochemical; design: activity contained in the 20,000 xg supernatant from cultured rat basophilic leukemia (RBL) cells; endogenous in cells; host or cells: RBL (rat basophilic leukemia) cells, 20,000 xg supernatant; conditions: Table 4, read-out: 5-LO % Inhibition at 30 μM
T1 sequence (P12527 1-673): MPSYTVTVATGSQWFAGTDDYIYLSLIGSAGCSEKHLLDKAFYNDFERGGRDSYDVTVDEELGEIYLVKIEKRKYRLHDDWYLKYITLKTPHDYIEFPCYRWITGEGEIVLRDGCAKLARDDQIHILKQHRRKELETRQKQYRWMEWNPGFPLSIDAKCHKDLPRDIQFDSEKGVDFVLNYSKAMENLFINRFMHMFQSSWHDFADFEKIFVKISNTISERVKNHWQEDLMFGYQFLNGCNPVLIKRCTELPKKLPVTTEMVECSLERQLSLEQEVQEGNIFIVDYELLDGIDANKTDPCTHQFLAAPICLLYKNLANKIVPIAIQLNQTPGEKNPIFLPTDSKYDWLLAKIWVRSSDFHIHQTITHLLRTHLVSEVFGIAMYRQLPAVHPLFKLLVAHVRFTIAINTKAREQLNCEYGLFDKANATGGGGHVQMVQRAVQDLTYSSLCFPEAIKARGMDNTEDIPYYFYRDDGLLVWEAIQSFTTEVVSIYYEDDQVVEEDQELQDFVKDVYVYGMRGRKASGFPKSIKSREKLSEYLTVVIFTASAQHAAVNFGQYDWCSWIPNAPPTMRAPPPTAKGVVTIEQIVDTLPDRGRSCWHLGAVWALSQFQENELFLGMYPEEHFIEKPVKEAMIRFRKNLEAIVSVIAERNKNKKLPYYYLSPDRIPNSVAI
Description: PROTOCOL FOR 5-LIPOXYGENASE INHIBITION ASSAY
Incubations contained 5% (v/v) RBL 20,000 xg supernatant in assay buffer (10 mM BES, 10 mM PIPES, 1 mM EDTA, 0.75 mM CaC12, 1 mMATP, 100 mMNaCl, pH 6.8). DMSO vehicle (2% v/v) with and without inhibitors is preincubated with the enzyme for 20 minutes at 37° C. before initiating the 5-lipoxygenase catalyzed reaction by adding […] [^14 C]arachidonic acid (55.8 mCi/mmol, New England Nuclear, Boston, Mass.) dissolved in 5 μL 0,028% (v/v) aqueous NH4 OH. After 20 minutes of additional incubation at 37° C., reactions are terminated by the addition of three volumes of methanol containing 100 μg triphenylphosphine. Samples are then analyzed by HPLC with radiometric detection for 5-1ipoxygenase reaction products.
All treatments are evaluated in duplicate and percent inhibition is computed by comparing the products formed in treatment incubations to the mean product formation in the vehicle control group.

5-Lipoxygenase [2] = molecular target: T1, 5-Lipoxygenase; experiment: ARBL: 5-lipoxygenase (LTB4) in RBL-1 cells; assay type: cell-based; design: endogenous in cells; host or cells: RBL-1 (rat basophilic leukemia); conditions: Table 4; ARBL/ARBC IC50 (μM) or % inhibition at 10 μM; RBL-1 cells, A23187
Description: The testing methods used are described as follows:
The rat basophilic leukemia cell line (RBL-1) was obtained from the American Type Culture Collection (Rockville, Md.).
Radioimmunoassay (RIA) kits of LTB4 and PGF2α were obtained from Arnersham (Arlington Heights, IL) and Seragen (Boston, Mass.), respectively.
All tissue culture media were obtained from GIBCO (Grand Island, N.Y.).
RBL-1 cells are grown in suspension culture in Eagle's minimum essential medium supplemented with 12% fetal bovine serum at 37° C. in an incubator supplied with air-5% carbon dioxide. Cells are harvested by centrifugation. They are washed with cold phosphate-buffered saline, pH 7.4 (PBS; NaCl, 7.1 g; Na2 HPO4, 1.15 g; KH2 PO4, 0.2 g; and KCl, 0.2 g/L). Cells are finally suspended in PBS containing 1.0 mM calcium at a density of 2×10^6 cells/mL. Cells are incubated with and without test agent (in DMSO) (1% DMSO is without effect on arachidonic acid metabolism) for 10 minutes at room temperature. Calcium ionophore A23187 (5 μM) is added and cells are incubated for 7 minutes at 37° C. The reaction is stopped by chilling the tubes on ice for 10 minutes. Cells are separated by centrifugation and the supernatant is stored at -20° C. Aliquots (100 μL) are analyzed for LTB4 and PGF2α using radioimmunoassay kits as provided by the supplier.

[3] = tested on: human neutrophil adhesion to TNFα, IL-1α, and LPS stimulated human umbilical vein endothelial cells; experiment: Modified method: inhibition of human neutrophil adhesion to TNF-stimulated HUVEC (calcein fluorescence); assay type: cell-based; design: inhibition: dose or concentration left out as unconfirmed; conditions: for inhibition at 33.3 µM: Table 2, tested at a concentration of 33.3 μM (footnote a); for inhibition: Table 3
Excerpt: MODIFIED METHOD FOR DETERMINING THE INHIBITION OF HUMAN NEUTROPHIL ADHESION TO TNFα, IL-1α, AND LPS STIMULATED HUMAN UMBILICAL VEIN ENDOTHELIAL CELLS BY 3-ALKOXY-BENZO[b]THIOPHENE-2-CARBOXAMIDES
The previous assay using ^51 Cr labeled human neutrophils has been modified. The neutrophils are now labeled with the fluorescent dye calcein. The current method allows for quantification of neutrophil adherence by fluorescence spectroscopy.
Second passage HUVEC (Clonetics Corporation, San Diego, Calif., CC-2617) were seeded into Corning (Corning glass works, Corning, N.Y.) 96-well cell culture plates at approximately 5×10^3 cells/well and grown to confluency in supplemented endothelial basal medium (EBM, MCDB-131, Clonetics, 10 ng/mL EGF, 1 μg/mL hydrocortisone, 0.4% bovine brain extract, 5% Fetal Bovine Serum). One day prior to running the assay, typically 3 days postseeding, the cultures were refed with 0.2 mL/well supplemented EBM (S-EBM).
Preparation of Test Compounds
Test compounds were prepared as 10 mL stock solutions at a concentration of 1.0 mM. The compounds were initially solubilized in 0.1 mL DMSO followed by the addition of 9.9 mL S-EBM. The drug preparations were then diluted in one step to a concentration of 66.6 μM. Solubilizations and dilutions were performed in polystyrene containers.
Isolation of Human Neutrophils
Human neutrophils were isolated from anticoagulant-treated venous blood obtained from healthy volunteers according to the method of Ferrante and Thong. The cell preparations consisted of greater than 98% neutrophils.
Recombinant human tumor necrosis factor-α (TNF, Genzyme, Boston, Mass., code TNF-H) was prepared at 400 U/mL in S-EBM. Stock TNF was prepared to 20,000 U/mL in Delbecco's phosphate-buffered saline (PBS, Gibco, Grand Island N.Y.) plus 0.1% BSA and stored at -70° C. […] This was accomplished by adding 0.1 mL of 400 U/mL TNF and 0.1 mL 66.6 μM test compound. These additions were done slowly as to not disrupt the HUVEC monolayer. Each compound was tested in six wells. Unstimulated (vehicle control) and TNF-stimulated without test compound treatments were also run in each plate.
One hour prior to adding the neutrophils to the HI/VEC, neutrophils (5×10^6 /mL) were labeled for 30 minutes at 37° C. with 5 μM calcine-AM (Molecular Probes, Eugene, OR) in Hanks' balanced salt solution plus 0.45% BSA. Stock calcein was prepared to 5 mM in anhydrous DMSO and stored desiccated at -20° C. At the end of the incubation the cells were washed two times in cold HBSS and resuspended to a final concentration of 1×10^6 cells/mL in unsupplemented EBM.
Addition of Neutrophils to HUVEC
At the end of the 4-hour stimulation and immediately prior to the addition of the neutrophils to the HUVEC monolayer, the plates were washed with 0.2 mL warm unsupplemented EBM to remove TNF and drug. Neutrophils (1×10^5 cells) were slowly added to each of the treated wells and incubated for 30 minutes at 37° C. At the end of the incubation the plates were washed two times with 0.2 mL warm unsupplemented EBM followed by a final addition of 0.1 mL for plate scanning.
Determination of Relative Fluorescence
The relative fluorescence was determined using a Millipore Cytofluor 2300 system (excitation=480, emission=530, sensitivity=4).
Results were expressed as means of percent inhibition of TNF-stimulated adherence, using the following equation. [formula] […] Linear regression analysis of the means of the inhibition values were used to determine the IC50.
The compounds of Examples 36-44 in Table 2 and 45-53 in Table 3 were tested according to the modified method.

Row | SMILES | inhibition at 33.3 µM [3] [%] | inhibition [3] [%] | further results
1 | COc1ccc2sc(C(N)=O)c(OC(C)C)c2c1 [Example 1, 5-methoxy-3-(1-methylethoxy)benzo[b]thiophene-2-carboxamide] |  |  | inhibition at 30 µM (5-Lipoxygenase [1]): 13%; IC50 (5-Lipoxygenase [2]): 36 µM
2 | CCOC(=O)c1ccc(NC(=O)c2sc3ccc(OC)cc3c2OC(C)C)nc1 [Example 36, Ethyl 6-[[[5-methoxy-3-(1-methylethoxy)benzo[b]thien-2-yl]carbonyl]amino]-3-pyridinecarboxylate] | 26 |  | 
3 | COc1ccc2sc(C(=O)Nc3ccc(C(=O)O)cn3)c(OC(C)C)c2c1 [Example 37] | 8 |  | 
4 | CCOC(=O)Cc1csc(NC(=O)c2sc3ccc(OC)cc3c2OC(C)C)n1 [Example 38, Ethyl 2-[[[5-methoxy-3-(1-methylethoxy)benzo[b]thien-2-yl]carbonyl]amino]-4-thiazoleacetate] | 72 |  | 
5 | COc1ccc2sc(C(=O)Nc3nc(CC(=O)O)cs3)c(OC(C)C)c2c1 [Example 39, 2-[[[5-Methoxy-3-(1-methylethoxy)benzo[b]thien-2-yl]carbonyl]amino]-4-thiazoleacetic acid] | 26 |  | 
6 | COc1ccc2sc(C(=O)Nc3ccc(C(=O)O)cc3OC)c(OC(C)C)c2c1 [Example 40, 3-Methoxy-4-[[[5-methoxy-3-(1-methylethoxy)benzo [b]thien-2-yl]carbonyl]amino]benzoic acid] | 34 |  | 
7 | COc1ccc2sc(C(=O)Nc3ccc(C(=O)O)c(O)c3)c(OC(C)C)c2c1 [Example 42, 2-Hydroxy-4-[[[5-methoxy-3-(1-methylethoxy)benzo[b]thien-2-yl]carbonyl]arnino]benzoic acid] |  |  | IC50 ([3]; Table 2, footnote c not defined): 34 µM
8 | CNC(=O)c1c(OC(C)C)c2cc(OC)ccc2[s+]1[O-] (centres unmarked) [Example 46, 5-Methoxy-N-methyl-3-(1-methylethoxy)benzo[b]thiophene-2-carboxamide-1-oxide] |  | 43 | 
9 | COc1ccc2c(c1)c(OC(C)C)c(C(=O)NCc1ccccc1)[s+]2[O-] (centres unmarked) [Example 47, 5-Methoxy-3-(1-methylethoxy)-N-(phenylmethyl)benzo[b]thiophene-2-carboxamide-1-oxide] |  | 15 | 
10 | CC(C)Oc1c(C(N)=O)[s+]([O-])c2ccc(O)cc12 (centres unmarked) [Example 49, 5-Hydroxy-3-(1-methylethoxy)benzo[b]thiophene-2-carboxaraide-1-oxide] |  | 79 | 
11 | Cc1ccc2c(c1)c(OC(C)C)c(C(N)=O)[s+]2[O-] (centres unmarked) [Example 50, 5-Methyl-3-(1-methylethoxy)benzo[b]thiophene-2-carboxaraide-1-oxide] |  | 69 | 
12 | COc1ccc2c(c1)c(Oc1ccccc1)c(C(N)=O)[s+]2[O-] (centres unmarked) [Example 51, 5-Methoxy-3-phenoxybenzo[b]thiophene-2-carboxamide-1-oxide] |  | 15 | 
13 | COc1ccc2c(c1)c(OC)c(C(N)=O)[s+]2[O-] (centres unmarked) [Example 53, 3,5-Dimethoxybenzo[b]thiophene-2-carboxamide-1-oxide] |  | 40 | 
